pIC50: −log10 of the molar value. Values joined by “and” are separate entries in the source; they are usually repeats but may differ in a detail not shown here. Equal entries are not always repeated.
Tested on: 313798-341-R-J2-PDC spheroids, viability
Test: Anticancer human tumor 313798-341-R-J2-PDC patient-derived cervical squamous cell carcinoma cell line growth inhibition [PI3K]
Settings: spheroids with HUVEC and MSC; for pIC50: curve of first compound; for viability, T/C: stronger effect = lower value
Summary of the method: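 Agents were dosed from a top concentration near clinical Cmax (otherwise 10 microM) in half-log decrements, alone or combined with PI3K inhibitors. The spheroids contain tumor cells plus endothelial (HUVEC) and MSC stroma; viability is measured.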

[1] = second compound 0.0316 µM, first compound 0.0316 µM
[2] = second compound 0.0316 µM, first compound 0.1 µM
[3] = second compound 0.0316 µM, first compound 0.316 µM
[4] = second compound 0.0316 µM, first compound 1 µM
[5] = second compound 0.0316 µM, first compound 3.16 µM
[6] = second compound 0.0316 µM, first compound 10 µM
[7] = second compound 0.1 µM, first compound 0.0316 µM
[8] = second compound 0.1 µM, first compound 0.1 µM
[9] = second compound 0.1 µM, first compound 0.316 µM
[10] = second compound 0.1 µM, first compound 1 µM
[11] = second compound 0.1 µM, first compound 3.16 µM
[12] = second compound 0.1 µM, first compound 10 µM
[13] = second compound 0.316 µM, first compound 0.0316 µM
[14] = second compound 0.316 µM, first compound 0.1 µM
[15] = second compound 0.316 µM, first compound 0.316 µM
[16] = second compound 0.316 µM, first compound 1 µM
[17] = second compound 0.316 µM, first compound 3.16 µM
[18] = second compound 0.316 µM, first compound 10 µM
[19] = second compound 1 µM, first compound 0.0316 µM
[20] = second compound 1 µM, first compound 0.1 µM
[21] = second compound 1 µM, first compound 0.316 µM
[22] = second compound 1 µM, first compound 1 µM
[23] = second compound 1 µM, first compound 3.16 µM
[24] = second compound 1 µM, first compound 10 µM
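Note: spheroids exposed to compounds for seven days.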
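Throughout, for viability, T/C: 100% = DMSO vehicle control viability.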

## CC1(C)CCC(CN2CCN(c3ccc(C(=O)NS(=O)(=O)c4ccc(NCC5CCOCC5)c([N+](=O)[O-])c4)c(Oc4cnc5[nH]ccc5c4)c3)CC2)=C(c2ccc(Cl)cc2)C1 + COc1c(OCCCN2CCOCC2)ccc2c3n(c(=NC(=O)c4cnc(N)nc4)nc12)CCN3
Second compound 0.00316 µM
  pIC50: < 5.00
Second compound 0.01 µM
  pIC50: < 5.00
Second compound 0.0316 µM
  pIC50: < 5.00
Second compound 0.1 µM
  pIC50: > 7.50
Second compound 0.316 µM
  pIC50: > 7.50
Second compound 1 µM
  pIC50: > 7.50
Second compound 0.00316 µM, first compound 0.0316 µM
  viability, T/C: 98.3%
Second compound 0.00316 µM, first compound 0.1 µM
  viability, T/C: 107%
Second compound 0.00316 µM, first compound 0.316 µM
  viability, T/C: 113%
Second compound 0.00316 µM, first compound 1 µM
  viability, T/C: 101%
Second compound 0.00316 µM, first compound 3.16 µM
  viability, T/C: 87.7%
Second compound 0.00316 µM, first compound 10 µM
  viability, T/C: 102%
Second compound 0.01 µM, first compound 0.0316 µM
  viability, T/C: 105%
Second compound 0.01 µM, first compound 0.1 µM
  viability, T/C: 110%
Second compound 0.01 µM, first compound 0.316 µM
  viability, T/C: 88.7%
Second compound 0.01 µM, first compound 1 µM
  viability, T/C: 96.5%
Second compound 0.01 µM, first compound 3.16 µM
  viability, T/C: 66.1%
Second compound 0.01 µM, first compound 10 µM
  viability, T/C: 95.2%
[1]
  viability, T/C: 70%
[2]
  viability, T/C: 77.1%
[3]
  viability, T/C: 69.3%
[4]
  viability, T/C: 75.8%
[5]
  viability, T/C: 47.4%
[6]
  viability, T/C: 73.2%
[7]
  viability, T/C: 44.4%
[8]
  viability, T/C: 41.4%
[9]
  viability, T/C: 40.3%
[10]
  viability, T/C: 37.8%
[11]
  viability, T/C: 35.1%
[12]
  viability, T/C: 41.2%
[13]
  viability, T/C: 14.6%
[14]
  viability, T/C: 14.6%
[15]
  viability, T/C: 16.5%
[16]
  viability, T/C: 14.2%
[17]
  viability, T/C: 13.3%
[18]
  viability, T/C: 15%
[19]
  viability, T/C: 9.63%
[20]
  viability, T/C: 9.06%
[21]
  viability, T/C: 11.1%
[22]
  viability, T/C: 10.6%
[23]
  viability, T/C: 12%
[24]
  viability, T/C: 11.2%

## C#Cc1c(F)ccc2cc(O)cc(-c3ncc4c(N5CC6CCC(C5)N6)nc(OCC56CCCN5CC(F)C6)nc4c3F)c12 (stereo unspecified) + Cc1nc(NC(=O)N2CCCC2C(N)=O)sc1-c1ccnc(C(C)(C)C(F)(F)F)c1
Second compound 0.0316 µM
  pIC50: < 5.00
Second compound 0.1 µM
  pIC50: < 5.00
Second compound 0.316 µM
  pIC50: < 5.00
Second compound 1 µM
  pIC50: < 5.00
Second compound 3.16 µM
  pIC50: 5.03
Second compound 10 µM
  pIC50: > 7.50
[1]
  viability, T/C: 92.7%
[2]
  viability, T/C: 91.5%
[3]
  viability, T/C: 90.5%
[4]
  viability, T/C: 99.2%
[5]
  viability, T/C: 103%
[6]
  viability, T/C: 102%
[7]
  viability, T/C: 105%
[8]
  viability, T/C: 106%
[9]
  viability, T/C: 112%
[10]
  viability, T/C: 97%
[11]
  viability, T/C: 105%
[12]
  viability, T/C: 96.5%
[13]
  viability, T/C: 99.9%
[14]
  viability, T/C: 98.4%
[15]
  viability, T/C: 121%
[16]
  viability, T/C: 108%
[17]
  viability, T/C: 99.1%
[18]
  viability, T/C: 100%
[19]
  viability, T/C: 97.6%
[20]
  viability, T/C: 80.3%
[21]
  viability, T/C: 89.3%
[22]
  viability, T/C: 89.7%
[23]
  viability, T/C: 90.9%
[24]
  viability, T/C: 79%
Second compound 3.16 µM, first compound 0.0316 µM
  viability, T/C: 59.9%
Second compound 3.16 µM, first compound 0.1 µM
  viability, T/C: 62.5%
Second compound 3.16 µM, first compound 0.316 µM
  viability, T/C: 59.1%
Second compound 3.16 µM, first compound 1 µM
  viability, T/C: 60.1%
Second compound 3.16 µM, first compound 3.16 µM
  viability, T/C: 54.6%
Second compound 3.16 µM, first compound 10 µM
  viability, T/C: 44.8%
Second compound 10 µM, first compound 0.0316 µM
  viability, T/C: 41.7%
Second compound 10 µM, first compound 0.1 µM
  viability, T/C: 39.8%
Second compound 10 µM, first compound 0.316 µM
  viability, T/C: 33.2%
Second compound 10 µM, first compound 1 µM
  viability, T/C: 33.9%
Second compound 10 µM, first compound 3.16 µM
  viability, T/C: 31.3%
Second compound 10 µM, first compound 10 µM
  viability, T/C: 27.2%

## CCCS(=O)(=O)Nc1ccc(F)c(C(=O)c2c[nH]c3ncc(-c4ccc(Cl)cc4)cc23)c1F
Compound 0.0316 µM
  viability, T/C: 98.2% [middle of 4 runs]
Compound 0.1 µM
  viability, T/C: 102% [middle of 4 runs]
Compound 0.316 µM
  viability, T/C: 101% [middle of 4 runs]
Compound 1 µM
  viability, T/C: 100% [middle of 4 runs]
Compound 3.16 µM
  viability, T/C: 107% (2×) and 99.1% and 108%
Compound 10 µM
  viability, T/C: 18.7% [middle of 4 runs]
Curve of compound
  IC50: 6.37 µM [middle of 4 runs]
